Marks after values point to notes of the source that are not given here.
Each compound was assayed on third stage larvae of Haemonchus contortus (assay: Haemonchus contortus, Larvae Stage 3 (HcL3) In Vitro Assay). Conditions: Haemonchus contortus third stage larvae in vitro; class mark appended to the Ex # in Table 3.
Format: cell-based

| SMILES | HcL3 MED |
| --- | --- |
| COc1cc(Cc2ccc(C[C@H]3OC(=O)[C@H](CC(C)C)N(C)C(=O)[C@@H](C)OC(=O)[C@H](CC(C)C)N(C)C(=O)[C@@H](Cc4ccc(Cc5cnc(OC)c(OC)c5)cc4)OC(=O)[C@H](CC(C)C)N(C)C(=O)[C@@H](C)OC(=O)[C@H](CC(C)C)N(C)C3=O)cc2)cnc1OC [Example 3-115] | 3-115^ (Examples with a carrot (^) have HcL3 MED values>1 and ≤3.3 μM) |
| CC(C)C[C@H]1C(=O)O[C@H](Cc2ccc(Cc3ccccn3)cc2)C(=O)N(C)[C@@H](CC(C)C)C(=O)O[C@H](C)C(=O)N(C)[C@@H](CC(C)C)C(=O)O[C@H](Cc2ccc(Cc3ccccn3)cc2)C(=O)N(C)[C@@H](CC(C)C)C(=O)O[C@H](C)C(=O)N1C [Example 3-27] | 3-27^ (Examples with a carrot (^) have HcL3 MED values>1 and ≤3.3 μM) |
| Cc1ncc(Cc2ccc(C[C@H]3OC(=O)[C@H](CC(C)C)N(C)C(=O)[C@@H](C)OC(=O)[C@H](CC(C)C)N(C)C(=O)[C@@H](Cc4ccc(Cc5cnc(C)o5)cc4)OC(=O)[C@H](CC(C)C)N(C)C(=O)[C@@H](C)OC(=O)[C@H](CC(C)C)N(C)C3=O)cc2)o1 [Example 3-298] | 3-298^ (Examples with a carrot (^) have HcL3 MED values>1 and ≤3.3 μM) |
| CC(C)C[C@H]1C(=O)O[C@H](Cc2ccc(Cc3ccnn3CC(C)C)cc2)C(=O)N(C)[C@@H](CC(C)C)C(=O)O[C@H](C)C(=O)N(C)[C@@H](CC(C)C)C(=O)O[C@H](Cc2ccc(Cc3ccnn3CC(C)C)cc2)C(=O)N(C)[C@@H](CC(C)C)C(=O)O[C@H](C)C(=O)N1C [Example 3-211] | 3-211^ (Examples with a carrot (^) have HcL3 MED values>1 and ≤3.3 μM) |
| CC(C)C[C@H]1C(=O)O[C@H](Cc2ccc(Cc3cccnc3)cc2)C(=O)N(C)[C@@H](CC(C)C)C(=O)O[C@H](C)C(=O)N(C)[C@@H](CC(C)C)C(=O)O[C@H](Cc2ccc(Cc3cccnc3)cc2)C(=O)N(C)[C@@H](CC(C)C)C(=O)O[C@H](C)C(=O)N1C [Example 3-3] | 3-3^ (Examples with a carrot (^) have HcL3 MED values>1 and ≤3.3 μM) |
| CC(C)C[C@H]1C(=O)O[C@H](Cc2ccc(Cc3nc(-c4ccccc4)cs3)cc2)C(=O)N(C)[C@@H](CC(C)C)C(=O)O[C@H](C)C(=O)N(C)[C@@H](CC(C)C)C(=O)O[C@H](Cc2ccc(Cc3nc(-c4ccccc4)cs3)cc2)C(=O)N(C)[C@@H](CC(C)C)C(=O)O[C@H](C)C(=O)N1C [Example 3-36] | 3-36* (Examples with an asterisk (*) have HcL3 MED values≤1 μM) |
| CC(C)C[C@H]1C(=O)O[C@H](Cc2ccc(Cc3cnn(C(F)F)c3)cc2)C(=O)N(C)[C@@H](CC(C)C)C(=O)O[C@H](C)C(=O)N(C)[C@@H](CC(C)C)C(=O)O[C@H](Cc2ccc(Cc3cnn(C(F)F)c3)cc2)C(=O)N(C)[C@@H](CC(C)C)C(=O)O[C@H](C)C(=O)N1C [Example 3-119] | 3-119* (Examples with an asterisk (*) have HcL3 MED values≤1 μM) |
| CC(C)C[C@H]1C(=O)O[C@H](Cc2ccc(Cc3nncs3)cc2)C(=O)N(C)[C@@H](CC(C)C)C(=O)O[C@H](C)C(=O)N(C)[C@@H](CC(C)C)C(=O)O[C@H](Cc2ccc(Cc3nncs3)cc2)C(=O)N(C)[C@@H](CC(C)C)C(=O)O[C@H](C)C(=O)N1C [Example 3-14] | 3-14* (Examples with an asterisk (*) have HcL3 MED values≤1 μM) |
| CC(C)C[C@H]1C(=O)O[C@H](Cc2ccc(Cc3cc[nH]n3)cc2)C(=O)N(C)[C@@H](CC(C)C)C(=O)O[C@H](C)C(=O)N(C)[C@@H](CC(C)C)C(=O)O[C@H](Cc2ccc(Cc3cc[nH]n3)cc2)C(=O)N(C)[C@@H](CC(C)C)C(=O)O[C@H](C)C(=O)N1C [Example 3-301] | 3-301^ (Examples with a carrot (^) have HcL3 MED values>1 and ≤3.3 μM) |

Same assay, conditions: approximately 96 hours incubation; multiple-resistant field isolate

| SMILES | HcL3 MED (symbol after Ex#) |
| --- | --- |
| CC(C)C[C@H]1C(=O)O[C@H](Cc2ccc(Cc3ccsn3)cc2)C(=O)N(C)[C@@H](CC(C)C)C(=O)O[C@H](C)C(=O)N(C)[C@@H](CC(C)C)C(=O)O[C@H](Cc2ccccc2)C(=O)N(C)[C@@H](CC(C)C)C(=O)O[C@H](C)C(=O)N1C [Example 4-36] | 4-36^ (Examples with a carrot (^) have HcL3 MED values>1 and ≤3.3 μM) |
| Cc1cc(Cc2ccc(C[C@H]3OC(=O)[C@H](CC(C)C)N(C)C(=O)[C@@H](C)OC(=O)[C@H](CC(C)C)N(C)C(=O)[C@@H](Cc4ccccc4)OC(=O)[C@H](CC(C)C)N(C)C(=O)[C@@H](C)OC(=O)[C@H](CC(C)C)N(C)C3=O)cc2)n(C)n1 [Example 4-42] | 4-42^ (Examples with a carrot (^) have HcL3 MED values>1 and ≤3.3 μM) |
| CC(C)C[C@H]1C(=O)O[C@H](Cc2ccc(Cc3cocn3)cc2)C(=O)N(C)[C@@H](CC(C)C)C(=O)O[C@H](C)C(=O)N(C)[C@@H](CC(C)C)C(=O)O[C@H](Cc2ccccc2)C(=O)N(C)[C@@H](CC(C)C)C(=O)O[C@H](C)C(=O)N1C [Example 4-52] | 4-52* (Examples with an asterisk (*) have HcL3 MED values≤1 μM) |
| Cc1nc(C)c(Cc2ccc(C[C@H]3OC(=O)[C@H](CC(C)C)N(C)C(=O)[C@@H](C)OC(=O)[C@H](CC(C)C)N(C)C(=O)[C@@H](Cc4ccccc4)OC(=O)[C@H](CC(C)C)N(C)C(=O)[C@@H](C)OC(=O)[C@H](CC(C)C)N(C)C3=O)cc2)o1 [Example 4-91] | 4-91^ (Examples with a carrot (^) have HcL3 MED values>1 and ≤3.3 μM) |
| Cc1ccc(Cc2ccc(C[C@H]3OC(=O)[C@H](CC(C)C)N(C)C(=O)[C@@H](C)OC(=O)[C@H](CC(C)C)N(C)C(=O)[C@@H](Cc4ccccc4)OC(=O)[C@H](CC(C)C)N(C)C(=O)[C@@H](C)OC(=O)[C@H](CC(C)C)N(C)C3=O)cc2)cn1 [Example 4-101] | 4-101^ (Examples with a carrot (^) have HcL3 MED values>1 and ≤3.3 μM) |
| CC(C)C[C@H]1C(=O)O[C@H](Cc2ccc(Cc3cccs3)cc2)C(=O)N(C)[C@@H](CC(C)C)C(=O)O[C@H](C)C(=O)N(C)[C@@H](CC(C)C)C(=O)O[C@H](Cc2ccccc2)C(=O)N(C)[C@@H](CC(C)C)C(=O)O[C@H](C)C(=O)N1C [Example 4-5] | 4-5^ (Examples with a carrot (^) have HcL3 MED values>1 and ≤3.3 μM) |
| COc1ncccc1Cc1ccc(C[C@H]2OC(=O)[C@H](CC(C)C)N(C)C(=O)[C@@H](C)OC(=O)[C@H](CC(C)C)N(C)C(=O)[C@@H](Cc3ccccc3)OC(=O)[C@H](CC(C)C)N(C)C(=O)[C@@H](C)OC(=O)[C@H](CC(C)C)N(C)C2=O)cc1 [Example 4-22] | 4-22^ (Examples with a carrot (^) have HcL3 MED values>1 and ≤3.3 μM) |
| Cc1nnsc1Cc1ccc(C[C@H]2OC(=O)[C@H](CC(C)C)N(C)C(=O)[C@@H](C)OC(=O)[C@H](CC(C)C)N(C)C(=O)[C@@H](Cc3ccccc3)OC(=O)[C@H](CC(C)C)N(C)C(=O)[C@@H](C)OC(=O)[C@H](CC(C)C)N(C)C2=O)cc1 [Example 4-116] | 4-116^ (Examples with a carrot (^) have HcL3 MED values>1 and ≤3.3 μM) |
| COc1ccccc1Cc1ccc(C[C@H]2OC(=O)[C@H](CC(C)C)N(C)C(=O)[C@@H](C)OC(=O)[C@H](CC(C)C)N(C)C(=O)[C@@H](Cc3ccccc3)OC(=O)[C@H](CC(C)C)N(C)C(=O)[C@@H](C)OC(=O)[C@H](CC(C)C)N(C)C2=O)cc1 [Example 2-12] | 2-12^ (Examples with a carrot (^) have HcL3 MED values>1 and ≤3.3 μM) |
| CC(C)C[C@H]1C(=O)O[C@H](Cc2ccc(Cc3cnco3)cc2)C(=O)N(C)[C@@H](CC(C)C)C(=O)O[C@H](C)C(=O)N(C)[C@@H](CC(C)C)C(=O)O[C@H](Cc2ccccc2)C(=O)N(C)[C@@H](CC(C)C)C(=O)O[C@H](C)C(=O)N1C [Example 4-135] | 4-135^ (Examples with a carrot (^) have HcL3 MED values>1 and ≤3.3 μM) |
| Cc1scnc1C(O)c1ccc(C[C@H]2OC(=O)[C@H](CC(C)C)N(C)C(=O)[C@@H](C)OC(=O)[C@H](CC(C)C)N(C)C(=O)[C@@H](Cc3ccccc3)OC(=O)[C@H](CC(C)C)N(C)C(=O)[C@@H](C)OC(=O)[C@H](CC(C)C)N(C)C2=O)cc1 (stereo partly drawn) [Example 4-56] | 4-56^ (Examples with a carrot (^) have HcL3 MED values>1 and ≤3.3 μM) |
| Cc1nn(C)cc1Cc1ccc(C[C@H]2OC(=O)[C@H](CC(C)C)N(C)C(=O)[C@@H](C)OC(=O)[C@H](CC(C)C)N(C)C(=O)[C@@H](Cc3ccccc3)OC(=O)[C@H](CC(C)C)N(C)C(=O)[C@@H](C)OC(=O)[C@H](CC(C)C)N(C)C2=O)cc1 [Example 4-3] | 4-3^ (Examples with a carrot (^) have HcL3 MED values>1 and ≤3.3 μM) |
| Cc1cnc(Cc2ccc(C[C@H]3OC(=O)[C@H](CC(C)C)N(C)C(=O)[C@@H](C)OC(=O)[C@H](CC(C)C)N(C)C(=O)[C@@H](Cc4ccccc4)OC(=O)[C@H](CC(C)C)N(C)C(=O)[C@@H](C)OC(=O)[C@H](CC(C)C)N(C)C3=O)cc2)s1 [Example 4-94] | 4-94^ (Examples with a carrot (^) have HcL3 MED values>1 and ≤3.3 μM) |
| CC(C)C[C@H]1C(=O)O[C@H](Cc2ccc(Cc3nccs3)cc2)C(=O)N(C)[C@@H](CC(C)C)C(=O)O[C@H](C)C(=O)N(C)[C@@H](CC(C)C)C(=O)O[C@H](Cc2ccccc2)C(=O)N(C)[C@@H](CC(C)C)C(=O)O[C@H](C)C(=O)N1C [Example 4-31] | 4-31* (Examples with an asterisk (*) have HcL3 MED values≤1 μM) |
| CC(C)C[C@H]1C(=O)O[C@H](Cc2ccc(Cc3ncc(Cl)s3)cc2)C(=O)N(C)[C@@H](CC(C)C)C(=O)O[C@H](C)C(=O)N(C)[C@@H](CC(C)C)C(=O)O[C@H](Cc2ccccc2)C(=O)N(C)[C@@H](CC(C)C)C(=O)O[C@H](C)C(=O)N1C [Example 4-111] | 4-111^ (Examples with a carrot (^) have HcL3 MED values>1 and ≤3.3 μM) |
| CC(C)C[C@H]1C(=O)O[C@H](Cc2ccc(Cc3cncs3)cc2)C(=O)N(C)[C@@H](CC(C)C)C(=O)O[C@H](C)C(=O)N(C)[C@@H](CC(C)C)C(=O)O[C@H](Cc2ccccc2)C(=O)N(C)[C@@H](CC(C)C)C(=O)O[C@H](C)C(=O)N1C [Example 4-35] | 4-35^ (Examples with a carrot (^) have HcL3 MED values>1 and ≤3.3 μM) |
| Cc1nc(Cc2ccc(C[C@H]3OC(=O)[C@H](CC(C)C)N(C)C(=O)[C@@H](C)OC(=O)[C@H](CC(C)C)N(C)C(=O)[C@@H](Cc4ccccc4)OC(=O)[C@H](CC(C)C)N(C)C(=O)[C@@H](C)OC(=O)[C@H](CC(C)C)N(C)C3=O)cc2)cs1 [Example 4-66] | 4-66^ (Examples with a carrot (^) have HcL3 MED values>1 and ≤3.3 μM) |
| Cc1nc(Cc2ccc(C[C@H]3OC(=O)[C@H](CC(C)C)N(C)C(=O)[C@@H](C)OC(=O)[C@H](CC(C)C)N(C)C(=O)[C@@H](Cc4ccccc4)OC(=O)[C@H](CC(C)C)N(C)C(=O)[C@@H](C)OC(=O)[C@H](CC(C)C)N(C)C3=O)cc2)co1 [Example 4-83] | 4-83^ (Examples with a carrot (^) have HcL3 MED values>1 and ≤3.3 μM) |

Reference: patent US11771738B2 (Zoetis Services LLC, priority 2018, dated 2023)
